Marks after values point to notes of the source that are not given here.
Assays:
bovine fibroblast cells [1] = assay: Combination of metaphase-synchronizing agent and shaking treatment: cell cycles of cells recovered from culture supernatant (Comparative Example 2); type: cell-based
Experimental: Fibroblast Cells and Observation Thereof Fetal fibroblast cells were recovered by collecting the medium containing the cells in a 15 ml test tube and by centrifuging the medium (180g, 5 minutes). After the centrifugation, the cell precipitate was resuspended with a small amount of the medium, and the resulting cell suspension was uniformly smeared on a slide glass. The slide glass was air-dried at room temperature and the cells were fixed (99.9% ethanol, 5 minutes) to prepare preparations.
Thirty minutes later, the whole culture supernatant was recovered after subjecting the petri dish to shaking treatment, or without the shaking treatment. The shaking treatment was carried out by intimately attaching the bottom plate of the plastic petri dish to a mixer (IKEDA RIKA, D-10) and driving the mixer to circularly move the petri dish for 1 minute (3000 rpm, diameter of circular movement: 0.3 cm). […] The cell pellet was resuspended in a small amount of the medium and the obtained cell suspension was smeared on a slide glass.
How the cell cycles of the cells recovered from the culture supernatant change by combination of the metaphase-synchronizing agent (2-MeOE2) and the shaking treatment was investigated with successively repeating the step of shaking treatment and the subsequent recovery 3 times. […] Thirty minutes later, shaking treatment was performed as in the first time and the second time, and the culture supernatant was centrifuged to recover the cells (third time recovered cells). The cells obtained using different concentrations of the metaphase-synchronizing agent and obtained in different times of recovery were respectively resuspended in a small amount of the medium and smear preparations were prepared. The smear preparations were air-dried, fixed, stained and observed.

bovine fibroblast cells [2] = assay: Collection of M phase cells: synchronization, shaking treatment and selection by size with 20 μm pipette (Example 1)
Text: As the bovine fibroblast cells (Japanese black), the cells from a fetal at Day 54 from conception were used. The recovered fetus was aseptically minced and digested with trypsin. The cell suspension was recovered and cultured in Dulbecco's modified eagle medium (D-MEM, Gibco BRL, Cat No. 11885-084, MD, USA), followed by storing frozen cells (one passage). For experiments, the frozen stored cells seeded on a 10 cm plastic petri dish (Falcon, 353003) were once subcultured, and the cells grown to logarithmic growth phase were used.
For synchronization to metaphase, 10% FBS-containing minimum essential medium (S-MEM, Cat. No.11385-036,Gibco BRL, MD, USA) supplemented with 2-methoxyestadiol (2-MeOE2, Cat No.M6383, Sigma chemical Co., MO, USA) to a concentration of 0.5 μM or 1 μM was used.
Each preparation was stained with Hoechst 33342 (Sigma Chemical Co, MO, USA) and observed with a fluorescence microscope. Only the cells having clear boundary of cell membrane were used for judgment. In Comparative Examples 1 and 2, the cells in prophase, metaphase, anaphase and telophase of cell cycle were classified into the cells in mitotic phase (M phase). The cells containing only one nucleus covered with a nuclear membrane were judged as the cells in interphase. The cells in which the nucleus in the cytoplasm is fragmented, the cells containing no nucleus in the cytoplasm, and the cells having a lot of nuclei in the cytoplasm were judged as abnormal cells. In Examples 1 and 2, M phase cells were further classified into normal metaphase cells (the one nucleus in metaphase is located in the cytoplasm) and abnormal metaphase cells (the two or more nuclei in metaphase are located in the cytoplasm). The cells in interphase were classified into normal interphase cells (only one nucleus having nuclear membrane exists in the cytoplasm) and abnormal interphase cells (two or more nuclei having nuclear membrane exist in the cytoplasm, or the nucleus in the cytoplasm is fragmented).
D-MEM medium in a petri dish containing cells in logarithmic growth phase was replaced with 5 ml of S-MEM medium containing 1.0 μM 2-MeOE2, and the culturing was continued. Thirty minutes later, the shaking treatment was carried out as in Comparative Example 1 and the culture supernatant was discarded. To the petri dish after discarding the culture supernatant, fresh S-MEM medium containing 1 μM 2-MeOE2 was added and the culture was continued for another 30 minutes. Thirty minutes later, the shaking treatment was carried out as described above and the culture supernatant was centrifuged (1000 rpm, 5 minutes) to recover the cells (second time recovered cells). An aliquot of the collected cells was transferred to D-MEM medium containing 1 μM 2-MeOE2, and substantially spherical cells having clear boundary of cell membrane and having a diameter slightly larger than 20 μm were selected within 30 minutes using a glass pipette (COOK, Cat.No.PBBP-2000) having an inner diameter of 20 μm. The selected cells were immediately transferred to phosphate buffered saline (D-PBS) containing Hoechst33342 and 1 μM 2-MeOE2, and cell cycles were determined under an inverted fluorescence microscope.

cells = conditions: nocodazole treatment, cells collected by the shaking method; cited from earlier work
[3] = 0.5 μM 2-MeOE2, first time recovered cells
[4] = 0.5 μM 2-MeOE2, first time recovered cells, of 2046 observed cells
[5] = 0.5 μM 2-MeOE2, second time recovered cells
[6] = 0.5 μM 2-MeOE2, second time recovered cells, of 2078 observed cells
[7] = 0.5 μM 2-MeOE2, third time recovered cells
[8] = 0.5 μM 2-MeOE2, third time recovered cells, of 2052 observed cells
[9] = 1 μM 2-MeOE2, first time recovered cells
[10] = 1 μM 2-MeOE2, first time recovered cells, of 2033 observed cells
[11] = 1 μM 2-MeOE2, second time recovered cells
[12] = 1 μM 2-MeOE2, second time recovered cells, of 2075 observed cells
[13] = 1 μM 2-MeOE2, third time recovered cells
[14] = 1 μM 2-MeOE2, third time recovered cells, of 2126 observed cells
[15] = 1 μM 2-MeOE2, second culture, shaking treatment, diameter not less than about 20 μm
[16] = 1 μM 2-MeOE2, second time recovered cells, 20 μm pipette, of 249 observed cells
[17] = 1 μM 2-MeOE2, second time recovered cells, selected with 20 μm pipette

In the case of `COc1cc2c(cc1O)CC[C@@H]1[C@@H]2CC[C@]2(C)[C@@H](O)CC[C@@H]12` [2-MeOE2, 2-methoxyestradiol], the “Number of Metaphase Cells (mean ± SD(%))” value (bovine fibroblast cells [1]; 0.5 μM 2-MeOE2, 30 min, first time recovered cells, shaking treatment) is reported as “(28.8 ± 3.0^a) %”, the “Number of Abnormal Cells (mean ± SD(%))” value (bovine fibroblast cells [1]; [3]) is reported as “(15.4 ± 5.8^a) %” and the “Number of Normal Interphase Cells (mean ± SD(%))” value (bovine fibroblast cells [1]; [3]) is reported as “(55.8 ± 3.6^a) %”. The “Number of Abnormal Cells” value (bovine fibroblast cells [1]; [4]) was 313, the “Number of Metaphase Cells” value (bovine fibroblast cells [1]; [4]) was 591 and the “Number of Normal Interphase Cells” value (bovine fibroblast cells [1]; [4]) was 1142. For the same compound, the “Number of Abnormal Cells (mean ± SD(%))” value (bovine fibroblast cells [1]; [5]) was “(6.6 ± 4.2^bc) %”, the “Number of Metaphase Cells (mean ± SD(%))” value (bovine fibroblast cells [1]; [5]) was “(45.2 ± 7.9^bc) %” and the “Number of Abnormal Cells” value (bovine fibroblast cells [1]; [6]) was 135. For the same compound, the “Number of Metaphase Cells” value (bovine fibroblast cells [1]; [6]) was 940, the “Number of Normal Interphase Cells” value (bovine fibroblast cells [1]; [6]) was 1003 and the “Number of Abnormal Cells (mean ± SD(%))” value (bovine fibroblast cells [1]; [7]) was “(6.4 ± 3.9^c) %”. For the same compound, the “Number of Metaphase Cells (mean ± SD(%))” value (bovine fibroblast cells [1]; [7]) was “(46.0 ± 7.5^c) %”, the “Number of Normal Interphase Cells (mean ± SD(%))” value (bovine fibroblast cells [1]; [7]) was “(47.6 ± 4.7^c) %” and the “Number of Abnormal Cells” value (bovine fibroblast cells [1]; [8]) was 130. The “Number of Metaphase Cells” value (bovine fibroblast cells [1]; [8]) was 945, the “Number of Normal Interphase Cells” value (bovine fibroblast cells [1]; [8]) was 977 and the “percentage of the M phase cells” value (bovine fibroblast cells [1]; 0.5 μM or 1.0 μM 2-MeOE2 with shaking treatment, first to third time recovered cells, shaking only 26.1%) was 28.8 to 81.2%. The “Number of Abnormal Cells (mean ± SD(%))” value (bovine fibroblast cells [1]; [9]) was “(11.4 ± 5.6^d) %”, the “Number of Metaphase Cells (mean ± SD(%))” value (bovine fibroblast cells [1]; [9]) was “(50.1 ± 8.6^d) %” and the “Number of Normal Interphase Cells (mean ± SD(%))” value (bovine fibroblast cells [1]; [9]) was “(38.5 ± 6.8^d) %”. The “Number of Abnormal Cells” value (bovine fibroblast cells [1]; [10]) was 232, the “Number of Metaphase Cells” value (bovine fibroblast cells [1]; [10]) was 1017 and the “Number of Normal Interphase Cells” value (bovine fibroblast cells [1]; [10]) was 784. The “Number of Abnormal Cells (mean ± SD(%))” value (bovine fibroblast cells [1]; [11]) was “(3.1 ± 1.5^ef) %”, the “Number of Metaphase Cells (mean ± SD(%))” value (bovine fibroblast cells [1]; [11]) was “(77.7 ± 5.4^e) %” and the “Number of Normal Interphase Cells (mean ± SD(%))” value (bovine fibroblast cells [1]; [11]) was “(19.2 ± 5.0^ef) %”. The “Number of Abnormal Cells” value (bovine fibroblast cells [1]; [12]) was 63, the “Number of Metaphase Cells” value (bovine fibroblast cells [1]; [12]) was 1614 and the “Number of Normal Interphase Cells” value (bovine fibroblast cells [1]; [12]) was 398. For the same compound, the “Number of Abnormal Cells (mean ± SD(%))” value (bovine fibroblast cells [1]; [13]) was “(3.2 ± 1.7^f) %”, the “Number of Metaphase Cells (mean ± SD(%))” value (bovine fibroblast cells [1]; [13]) was “(81.2 ± 5.0^f) %” and the “Number of Normal Interphase Cells (mean ± SD(%))” value (bovine fibroblast cells [1]; [13]) was “(15.6 ± 3.3^f) %”. The “Number of Abnormal Cells” value (bovine fibroblast cells [1]; [14]) was 68, the “Number of Metaphase Cells” value (bovine fibroblast cells [1]; [14]) was 1728 and the “Number of Normal Interphase Cells” value (bovine fibroblast cells [1]; [14]) was 330. The “M phase cells among the collected cells” value (bovine fibroblast cells [2]; [15]) was 99.1%, the “normal metaphase cells among the collected cells (243/246)” value (bovine fibroblast cells [2]; [15]) was 98.8% and the “Number of Abnormal Interphase Cells” value (bovine fibroblast cells [2]; [16]) was 0. For the same compound, the “Number of Abnormal Metaphase Cells” value (bovine fibroblast cells [2]; [16]) was 3, the “Number of Normal Interphase Cells” value (bovine fibroblast cells [2]; [16]) was 3 and the “Number of Normal Metaphase Cells” value (bovine fibroblast cells [2]; [16]) was 243. The “Number of Abnormal Interphase Cells (mean ± SD(%))” value (bovine fibroblast cells [2]; [17]) was “(0.0 ± 0.0) %”, the “Number of Abnormal Metaphase Cells (mean ± SD(%))” value (bovine fibroblast cells [2]; [17]) was “(1.3 ± 2.5) %” and the “Number of Normal Interphase Cells (mean ± SD(%))” value (bovine fibroblast cells [2]; [17]) was “(1.0 ± 1.1) %”. The “Number of Normal Metaphase Cells (mean ± SD(%))” value (bovine fibroblast cells [2]; [17]) was “(97.8% ± 2.1)”.
In the case of `COC(=O)Nc1nc2ccc(C(=O)c3cccs3)cc2[nH]1` [nocodazole], the “cells in the metaphase obtained” value (cells) is listed as 25 to 34%.

From patent publication US20030044974A1, “Method for collecting cells in M phase or G1 phase and method for nuclear transplantation using the cells” (priority 2001, published 2003)
